From paper PMC6748986, “Potent modulation of the CepR quorum sensing receptor and virulence in a Burkholderia cepacia complex member using non-native lactone ligands” (Scientific Reports, 2019)
Like-named read-outs stand apart in the source and are kept apart here.

Experiments:
CepR = biological target: T1, CepR (Burkholderia multivorans, UniProt Q93PF7); assay: CepR antagonism in B. multivorans cepI::lacZ reporter (Bm-reporter), competition against C8-AHL; assay type: cell-based
T1 sequence (Q93PF7 1-239): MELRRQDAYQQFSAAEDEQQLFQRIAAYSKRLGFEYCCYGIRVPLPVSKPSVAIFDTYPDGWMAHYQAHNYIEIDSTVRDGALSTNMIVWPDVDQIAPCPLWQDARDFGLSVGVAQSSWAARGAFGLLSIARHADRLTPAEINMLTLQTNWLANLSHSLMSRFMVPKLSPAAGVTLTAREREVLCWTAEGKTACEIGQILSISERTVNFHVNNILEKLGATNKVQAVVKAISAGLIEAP
Source text: We next sought to assess if the CepR modulators identified in the Ec-reporter maintained their activities in a member of the Bcc. For these studies, we generated a B. multivorans cepI::lacZ reporter organism (Bm-reporter) using standard allelic exchange methods (see Methods). Along with B. cenocepacia, B. multivorans is one of the most commonly isolated Bcc members[6],[44]. We note that small molecules must contend with a different cellular environment in the native organism relative to E. coli[48]; however, as both CepR and the cepI promoter are highly conserved among Bcc species (Fig. S3), we reasoned that the majority of compounds identified in the Ec-reporter (containing B. cenocepacia versions of the cepI promoter and the cepR gene) would maintain their relative activity profiles in CepR in B. multivorans. […] Similar to the Ec-reporter, CepR binding to the cepI promoter then induces β-galactosidase production, allowing for the quantitation of CepR activity. Using the Bm-reporter organism, we observed robust activity for CepR in response to C8-AHL (EC50 = 0.7 nM, Table 3).
The B. multivorans cepI::lacZ strain was used to obtain dose-response data for CepR in response to synthetic AHLs. Overnight cultures of B. multivorans cepI::lacZ were grown in LB medium at 37 °C with shaking (225 rpm). Aliquots (200 μL) of a 1:10 dilution of this overnight culture were plated into 96-well plates containing varying concentrations of compound, and then grown for 4 h at 37 °C with shaking (225 rpm). β-galactosidase production was measured as described above for E. coli, with the following changes: permeabilized cells were incubated at 25 °C with substrate CPRG for ~10 min until positive control wells developed a deep red color. For agonism assays, synthetic compound was screened alongside and compared to the native ligand, C8-AHL (100 μM). For antagonism assays, the concentration of native ligand utilized was 5 nM (approximately equal to twice its EC50 value).

B. multivorans ATCC17616 = assay: Swarming motility assay (0.5% agar); assay type: cell-based; conditions: 50 μM C8-AHL
Source text: We were interested to assess the effects of our lead CepR modulators on a phenotype under the control of QS in B. multivorans. However, very little work has been reported to directly link CepR activity in B. multivorans to any QS-controlled phenotype. […] Therefore, we chose to study the effects of compound treatment on both the swarming and swimming motility of B. multivorans (B. multivorans ATCC17616; see Methods).
We then tested the ability of our non-native compounds to modulate swimming motility in B. multivorans.
Figure S4. Motility assays (A ) on 0.3% agar (i.e., to measure swimming) with th e B. multivorans parental and cepI::lacZ organisms, using +/- 50 μM C8-AHL and (B) on 0. 5 % ag a r (i.e . , t o measure swarming ) with the B. multivorans parental organism, using +/- 50 μ M C8-AHL. Se e main text for assay methods.
(1 picture or pasted object on this page, not shown here)

LasR, RhlR, and QscR = assay: Comparison of activities in CepR vs. the three LuxR-type receptors in P. aeruginosa; conditions: preliminary analyses; comparison with earlier data ref 22, 24, 59
Source text: To close, the compounds identified herein constitute new chemical tools to study QS in Bcc species in a variety of contexts. Given the strong conservation of CepR between Bcc members, we hypothesize our compounds will maintain their activity profiles across Bcc member species and we can begin to use them to assess the role of CepI/CepR QS on a broader scale. […] A next step moving forward will be to gauge the selectivity of the ligands identified herein for CepR over other LuxR-type receptors. […] Such compounds could allow for the selective targeting of QS in one organism in a mixed culture over time and allow for insights into the potential for interspecies interactions via QS and their effects on host health outcomes. Ongoing studies are focused in this arena, along with further delineating the mechanisms by which our CepR ligands agonize and antagonize CepR, and will be reported in due course.

[1] = Bm-reporter, against 5 nM C8-AHL

Row | SMILES | CepR antagonism in words (CepR; Bm-reporter) | Maximal Inhibition (%) (CepR; [1]) | IC50 (CepR; Bm-reporter, against 5 nM C8-AHL, read-out: IC50) [nM] | Swarming motility upon addition of compound (B. multivorans ATCC17616) | IC50 (CepR) [nM] | Selectivity for CepR over LasR, RhlR, QscR (LasR, RhlR, and QscR)
1 | O=C(Cc1cccc(Br)c1)N[C@H]1CCOC1=O [Compound C8] | bring reporter activity down to nearly zero | 94 | 2600 | – | – | –
2 | CCCCCCCC(=O)N[C@H]1CCOC1=O [Compound C8-AHL, N-octanoyl L-homoserine lactone, reference compound] | – | – | – | not increased | – | –
3 | O=C(CC1CCCC1)N[C@H]1CCOC1=O [Compound B12] | – | 83 | – | – | 2100 | –
4 | O=C(Cc1cccc(C(F)(F)F)c1)N[C@H]1CCOC1=O [Compound E3] | bring reporter activity down to nearly zero | 100 | – | – | 1900 | selective for CepR
5 | CCCCCCCS(=O)(=O)N[C@H]1CCOC1=O [Compound A12] | – | 82 | – | – | 1700 | selective for CepR
6 | O=C(CCc1ccc([N+](=O)[O-])cc1)N[C@H]1CCOC1=O [Compound E37] | – | – | – | – | – | selective for CepR
